Patent publication US20170296491A1, “PHARMACEUTICAL COMPOSITIONS COMPRISING LEVODOPA AMIDE AND USES THEREOF” (priority 2015, published 2017)
Structures can show the parent of a compound that is named as a salt.

What was measured:
[1] = Effect of preparation method and pH on stability of LDA-HCl/CD formulations; assay type: physicochemical; details: 5 days at room temperature (Table 7)
Description: LDA-HCl/CD formulations were prepared by the following methods, and were then tested for stability. Method 1. Carbidopa (CD, powder) [Teva Pharmaceuticals Ltd., Israel] was added to LDA-HCl solution. […] Precipitation occurred at room temperature. Method 2. Liquid CD formulations were prepared by weighting CD [Teva Pharmaceuticals Ltd., Israel] in a suitable container with different L-arginine [Merck] weights to obtain a final concentration of 0.8% CD (wet form, 0.75% dry form) in different molar ratios to arginine (Table 6). CD formulations were prepared as described in the International Publication No. WO 2010/134074. LDA-HCl (powder) was added to CD solutions to attain the final desired concentration of LDA-HCl/CD formulations. Method 3. CD solutions (40 mg/ml, prepared as described in the International Publication No. WO 2010/134074) were mixed with LDA-HCl solutions to attain the final desired concentration of LDA/CD formulations. The LDA-HCl formulations were prepared by dissolving 200, 160 or 120 mg/ml of LDA-HCl in 40 mM citric buffer. The chemical stability of 7 LDA-HCl/CD formulations was evaluated by HPLC analysis at t0 and after 5 days at room temperature. The recovery after 5 days at room temperature was calculated compared to t0 (Table 7).

[2] = Plasma pharmacokinetics of LDA and LD after oral LDA-HCl with and without CD in rats; assay type: in vivo; details: oral LDA-HCl 25 mg/kg with or without oral 10 mg/kg CD
Description: The purpose of this experiment was to determine the plasma pharmacokinetics of LDA and LD following oral administration of LD or LDA-HCl with and without CD in Wistar rats.
Wistar rats underwent fasting overnight prior to the dosing and received food only 2 hour post-dosing. The method used to dose orally was via oesophagotubage. Solutions were prepared as described above.

[3] = Stability of LDA-HCl 50 mg/ml in citrate or phosphate buffer, 4 days at 37° C., HPLC; assay type: physicochemical
Description: Liquid formulations were prepared by dissolving LDA-HCl, 50 mg/ml in buffer citrate or buffer phosphate at different pH levels (Table 2). The formulations were incubated 4 days at 37° C., their stability was evaluated by HPLC analysis at the end of the fourth day, and the recovery after 4 days at 37° C. was calculated compared to T=0.

[4] = Physical stability (visual) of LDA-HCl 50 mg/ml in water or buffers at room temperature; assay type: physicochemical; details: for Color at T = 24 h (RT): 50 mg/ml; for time physically stable at room temperature: 5% LDA-HCl and water or a buffer
Description: (§1) Liquid formulations were prepared by dissolving LDA-HCl, 50 mg/ml in water or different buffers (40 mM) at various pH levels. The physical stability of LDA was determined visually after 24 hours and 7 days (Table 3), and the chemical stability of LDA was determined by HPLC analysis (Table 4) after 24 h at room temperature (RT) and expressed as % recovery compared to t0.

[5] = Chemical stability (HPLC) of LDA-HCl 50 mg/ml in water or buffers after 24 h at room temperature; assay type: physicochemical
Description: as §1

[6] = Long term stability of LDA-HCl 200 mg/ml in citric buffer with NAC, 2 weeks at 37° C.; assay type: physicochemical
Description: Liquid formulation comprising LDA-HCl in citric buffer was prepared by dissolving 200 mg/ml LDA-HCl in 40 mM citric buffer with 0.05% N-acetylcysteine (NAC) as antioxidant. The formulation was incubated for 2 weeks at 37° C. The stability of LDA after 14 days at 37° C. was evaluated by HPLC analysis, and the recovery calculated compared to t0 (Table 5).

[7] = Physical stability of LDA-HCl solutions with or without added CD-Arg formulation; assay type: physicochemical; details: preferably pH >4.6
Description: HCl solutions at 3 different concentrations containing 0.3% Tween 80 were added to LDA to obtain solutions having a final LDA concentration of 200 mg/ml and a molar ratio of 1:0.89, 1:0.92 and 1:0.95 LDA:HCl. CD-Arg formulation (CD:Arg molar ratio 1:1.25) was prepared in Tween 80 0.3% and was added gradually under stirring to 4 volumes of each of the 3 LDA-HCl solutions. The physical stability of the solutions was evaluated (Table 15). As shown, the addition of CD to LDA-HCl solutions yielded stable solutions if added to LDA-HCl solutions having a pH>3.8, preferably pH >4.6.

[8] = 200 mg/ml LDA-HCl, 40 mM citric buffer, 0.05% NAC

C[C@@](Cc1ccc(O)c(O)c1)(NN)C(=O)O [CD, Carbidopa]
chemical stability in LDA-HCl/CD formulations [1]: pH-dependent
effect of CD on plasma concentration of LD [2]: increases
effect of CD on plasma concentrations of LDA [2]: no effect

NC(=O)C(N)Cc1ccc(O)c(O)c1 (stereo not drawn) [LDA-HCl, 2-amino-3-(3,4-dihydroxyphenyl)propanamide]
stability at 37° C. ([3]; in buffer phosphate at pH>5.7): not stable
time stable at 37° C. ([3]; in citrate buffer): at least 4 days
Color at T = 24 h (RT) ([4]; Acetate pH 3.76): light yellow
Color at T = 24 h (RT) ([4]; Acetate pH 4.72): light yellow
Color at T = 24 h (RT) ([4]; Citrate pH 3.09): light yellow
Color at T = 24 h (RT) ([4]; Citrate pH 3.90): light yellow
Color at T = 24 h (RT) ([4]; Citrate pH 4.85): light yellow
Color at T = 24 h (RT) ([4]; Citrate pH 5.65): medium yellow
Color at T = 24 h (RT) ([4]; Histidine pH 6.20): medium yellow
Color at T = 24 h (RT) ([4]; Phosphate pH 6.03): medium yellow
Color at T = 24 h (RT) ([4]; Phosphate pH 6.32): medium yellow
Color at T = 24 h (RT) ([4]; Tartrate pH 3.84): light yellow
Color at T = 24 h (RT) ([4]; Tris pH 5.39): light yellow
Color at T = 24 h (RT) ([4]; Tris pH 6.14): medium yellow
Color at T = 24 h (RT) ([4]; Tris pH 6.61): medium yellow
Color at T = 24 h (RT) ([4]; Water for injection (WFI) pH 3.56): light yellow
Color at T = 24 h (RT) ([4]; Water for injection (WFI) pH 4.14): light yellow
Color at T = 24 h (RT) ([4]; Water for injection (WFI) pH 4.95): light yellow
Color at T = 24 h (RT) ([4]; Water for injection (WFI) pH 5.93): medium yellow
Color at T = 24 h (RT) ([4]; Water for injection (WFI) pH 6.44): medium yellow
Color at T = 24 h (RT) ([4]; Water for injection (WFI) pH 6.91): strong yellow
time physically stable at room temperature ([4]; all conditions tested): 24 h
time physically stable at room temperature ([4]; only formulations having a pH<5.5): at least 7 days
time chemically stable at room temperature ([5]; 5% LDA-HCl and water or a buffer, pH ranging between 3 to 7): at least 24 h
LDA (mg/ml) at T = 0 ([5]; Acetate pH 3.76): 52.09 mg/mL
LDA (mg/ml) at T = 24 hr (RT) ([5]; Acetate pH 3.76): 52.41 mg/mL
LDA (mg/ml) at T = 0 ([5]; Acetate pH 4.72): 52.66 mg/mL
LDA (mg/ml) at T = 24 hr (RT) ([5]; Acetate pH 4.72): 53.05 mg/mL
LDA (mg/ml) at T = 0 ([5]; Citrate pH 3.09): 51.84 mg/mL
LDA (mg/ml) at T = 24 hr (RT) ([5]; Citrate pH 3.09): 52.09 mg/mL
LDA (mg/ml) at T = 0 ([5]; Citrate pH 3.9): 51.34 mg/mL
LDA (mg/ml) at T = 24 hr (RT) ([5]; Citrate pH 3.9): 51.7 mg/mL
LDA (mg/ml) at T = 0 ([5]; Citrate pH 4.85): 52.05 mg/mL
LDA (mg/ml) at T = 24 hr (RT) ([5]; Citrate pH 4.85): 52.75 mg/mL
LDA (mg/ml) at T = 0 ([5]; Citrate pH 5.65): 51.24 mg/mL
LDA (mg/ml) at T = 24 hr (RT) ([5]; Citrate pH 5.65): 51.03 mg/mL
LDA (mg/ml) at T = 0 ([5]; Histidine pH 6.2): 51.27 mg/mL
LDA (mg/ml) at T = 24 hr (RT) ([5]; Histidine pH 6.2): 51.76 mg/mL
LDA (mg/ml) at T = 0 ([5]; Phosphate pH 6.03): 51.32 mg/mL
LDA (mg/ml) at T = 24 hr (RT) ([5]; Phosphate pH 6.03): 51.36 mg/mL
LDA (mg/ml) at T = 0 ([5]; Phosphate pH 6.32): 52.05 mg/mL
LDA (mg/ml) at T = 24 hr (RT) ([5]; Phosphate pH 6.32): 51.82 mg/mL
LDA (mg/ml) at T = 0 ([5]; Tartrate pH 3.84): 52.46 mg/mL
LDA (mg/ml) at T = 24 hr (RT) ([5]; Tartrate pH 3.84): 52.26 mg/mL
LDA (mg/ml) at T = 0 ([5]; Tris pH 5.39): 51.88 mg/mL
LDA (mg/ml) at T = 24 hr (RT) ([5]; Tris pH 5.39): 52.08 mg/mL
LDA (mg/ml) at T = 0 ([5]; Tris pH 6.14): 51.79 mg/mL
LDA (mg/ml) at T = 24 hr (RT) ([5]; Tris pH 6.14): 51.73 mg/mL
LDA (mg/ml) at T = 0 ([5]; Tris pH 6.61): 51.62 mg/mL
LDA (mg/ml) at T = 24 hr (RT) ([5]; Tris pH 6.61): 51.74 mg/mL
LDA (mg/ml) at T = 0 ([5]; WFI pH 3.56): 51.91 mg/mL
LDA (mg/ml) at T = 24 hr (RT) ([5]; WFI pH 3.56): 51.34 mg/mL
LDA (mg/ml) at T = 0 ([5]; WFI pH 4.14): 51.3 mg/mL
LDA (mg/ml) at T = 24 hr (RT) ([5]; WFI pH 4.14): 51.57 mg/mL
LDA (mg/ml) at T = 0 ([5]; WFI pH 4.95): 51.07 mg/mL
LDA (mg/ml) at T = 24 hr (RT) ([5]; WFI pH 4.95): 50.23 mg/mL
LDA (mg/ml) at T = 0 ([5]; WFI pH 5.93): 51.32 mg/mL
LDA (mg/ml) at T = 24 hr (RT) ([5]; WFI pH 5.93): 50.5 mg/mL
LDA (mg/ml) at T = 0 ([5]; WFI pH 6.44): 51.24 mg/mL
LDA (mg/ml) at T = 24 hr (RT) ([5]; WFI pH 6.44): 50.33 mg/mL
LDA (mg/ml) at T = 0 ([5]; WFI pH 6.91): 51.05 mg/mL
LDA (mg/ml) at T = 24 hr (RT) ([5]; WFI pH 6.91): 49.54 mg/mL
LDA content at T = 0 [6, 8]: 18.69
LDA content at T = 2 w, 37° C. [6, 8]: 19.01
time stable ([6]; high concentrations of LDA-HCl and NAC in citric buffer): at least 14 days
pH of LDA-HCl solution at which addition of CD yielded stable solutions [7]: > 3.8
